From patent US8637504B2, “Sulfur-containing heterocyclic derivative having beta secretase inhibitory activity” (Shionogi & Co., Ltd., priority 2008, dated 2014)
Like-named read-outs stand apart in the source and are kept apart here. Values belong to the compound of their own block, whether it stands above or below them.

Experiments:
[1] = Solubility test; type: physicochemical; details: pH 1.2, simulated gastric fluid, kinetic from dmso stock; JP-I medium, turbidity after 4 hours
Procedure: A 2-fold dilution series (12 points) of a 10 mM solution of a test compound in DMSO was added to a medium (JP-I, JP-II) (2%), and solubility was assessed by 3 stages (High; >40 Medium; 3-40 μM, Low; <3 μM) from a turbidity after 4 hours (crystallization information).

[2] = molecular target: Recombinant human BACE-1 (Homo sapiens (Human), UniProt P56817); test: Assay of β-secretase-inhibiting activity
[3] = molecular target: CYP1A2 (Homo sapiens (Human), UniProt P05177); test: CYP inhibition test (CYP1A2); type: in vitro ADME; details: pooled human hepatic microsome, 7-ethoxyresorufin O-deethylation
Procedure: (§1) After the centrifugation at 3000 rpm for 15 minutes, resorufin (CYP1A2 metabolite) in the supernatant was quantified by a fluorescent multilabel counter and tributamide hydroxide (CYP2CP metabolite), mephenyloin 4′ hydroxide (CYP2C19 metabolite), […] (CYP2D6 metabolite), and terfenadine alcohol (CYP3A4 metabolite) were quantified by LC/MS/MS. Addition of only DMSO being a solvent dissolving a drug to a reaction system was adopted as a control (100%), remaining activity (%) was calculated at each concentration of a test drug added as the solution and […] was calculated by reverse presumption by a logistic model using a concentration and an inhibition rate.

[4] = molecular target: CYP2C9 (Homo sapiens (Human), UniProt P11712); test: CYP inhibition test (CYP2C9); type: in vitro ADME; details: pooled human hepatic microsome, tolbutamide methyl-hydroxylation
Procedure: as §1

[5] = molecular target: CYP2C19 (Homo sapiens (Human), UniProt P33261); test: CYP inhibition test (CYP2C19); type: in vitro ADME; details: pooled human hepatic microsome, mephenyloin 4′-hydroxylation
Procedure: as §1

[6] = molecular target: CYP2D6 (Homo sapiens (Human), UniProt P10635); test: CYP inhibition test (CYP2D6); type: in vitro ADME; details: pooled human hepatic microsome, dextromethorphan O-demethylation
Procedure: as §1

[7] = molecular target: T1, CYP3A4 (Homo sapiens (Human), UniProt P08684); test: CYP inhibition test (CYP3A4); type: in vitro ADME; details: pooled human hepatic microsome, terfenedine hydroxylation
Procedure: as §1

[8] = Metabolism stability test; type: in vitro ADME; details: human liver microsomes 0.5 mg protein/mL, NADPH, 37° C., 30 minutes
Procedure: Using a commercially available pooled human hepatic microsomes, a test compound was reacted for a constant time, a remaining rate was calculated by comparing a reacted sample and an unreacted sample, thereby, a degree of metabolism in liver was assessed.
A reaction was performed (oxidative reaction) at 37° C. for 0 minute or 30 minutes in the presence of 1 mmol/L NADPH in 0.2 mL of a buffer (50 mmol/L Tris-HCl pH 7.4, 150 mmol/L potassium chloride, 10 mmol/L magnesium chloride) containing 0.5 mg protein/mL of human liver microsomes. After the reaction, 50 μl, of the reaction solution was added to 100 μL of a methanol/acetonitrile=1/1 (v/v), mixed and centrifuged at 3000 rpm for 15 minutes. The test compound in the supernatant was quantified by LC/MS/MS, and a remaining amount of the test compound after the reaction was calculated, letting a compound amount at 0 minute reaction time to be 100%.

[9] = molecular target: human ether-a-go-go related gene (hERG) channel (Homo sapiens (Human), UniProt Q12809); test: hERG test; type: cell-based; details: HEK293 cells expressing hERG, patch clamp, applied 10 minutes
Text: For the purpose of assessing risk of an electrocardiogram QT interval prolongation, effects on delayed rectifier K+ current (IKr), which plays an important role in the ventricular repolarization process, was studied using HEK293 cells expressing human ether-a-go-go related gene (hERG) channel.
After a cell was retained at a membrane potential of −80 mV by whole cell patch clamp method using an automated patch clamp system (PatchXpress 7000A, Axon Instruments Inc.), IKr induced by depolarization pulse stimulation at +50 mV for 2 seconds and, further, repolarization pulse stimulation at −50 mV for 2 seconds was recorded. […] From the recording IKr, an absolute value of the tail peak current was measured based on the current value at the resting membrane potential using an analysis software (DataXpress ver.1, Molecular Devices Corporation). Further, the % inhibition relative to the tail peak current before application of the test substance was calculated, and compared with the vehicle-applied group (0.1% dimethyl sulfoxide solution) to assess influence of the test substance on IKr.

[10] = molecular target: T1, CYP3A4; test: CYP3A4 fluorescent MBI test; type: in vitro ADME; details: pre-reaction time 0 or 30 minutes, substrate 7-BFC
Procedure: The CYP3A4 fluorescent MBI test is a test of investigating enhancement of CYP3A4 inhibition of a compound by a metabolism reaction, and the test was performed using, as CYP3A4 enzyme expressed in Escherichia coli and employing, as an index, a reaction in which 7-benzyloxytrifluoromethylchmarin (7-BFC) is debenzylated by the CYP3A4 enzyme to produce a metabolite, 7-hydroxytrifluoromethylchmarin (HFC) emitting fluorescent light.
The reaction conditions were as follows: substrate, 5.6 μmol/L 7-BFC; pre-reaction time, 0 or 30 minutes; reaction time, 15 minutes; reaction temperature, 25° C. […]
An enzyme in a K-Pi buffer (pH 7.4) and a test drug solution as a pre-reaction solution were added to a 96-well plate at the composition of the pre-reaction, a part of it was transferred to another 96-well plate so that it was 1/10 diluted by a substrate in a K-Pi buffer, NADPH as a co-factor was added to initiate a reaction as an index (without preincubation) and, after a predetermined time of a reaction, acetonitrile/0.5 mol/L Tris (trishydroxyaminomethane)=4/1 was added to stop the reaction. […] For the plate on which each index reaction had been performed, a fluorescent value of 7-HFC which is a metabolite was measured with a fluorescent plate reader. […]

[11] = Recombinant human BACE-1 7.4 nM, substrate peptide 18 nM, pH 5.0, 30° C. 3 hours

Recombinant human BACE-1, sequence (P56817 46-501): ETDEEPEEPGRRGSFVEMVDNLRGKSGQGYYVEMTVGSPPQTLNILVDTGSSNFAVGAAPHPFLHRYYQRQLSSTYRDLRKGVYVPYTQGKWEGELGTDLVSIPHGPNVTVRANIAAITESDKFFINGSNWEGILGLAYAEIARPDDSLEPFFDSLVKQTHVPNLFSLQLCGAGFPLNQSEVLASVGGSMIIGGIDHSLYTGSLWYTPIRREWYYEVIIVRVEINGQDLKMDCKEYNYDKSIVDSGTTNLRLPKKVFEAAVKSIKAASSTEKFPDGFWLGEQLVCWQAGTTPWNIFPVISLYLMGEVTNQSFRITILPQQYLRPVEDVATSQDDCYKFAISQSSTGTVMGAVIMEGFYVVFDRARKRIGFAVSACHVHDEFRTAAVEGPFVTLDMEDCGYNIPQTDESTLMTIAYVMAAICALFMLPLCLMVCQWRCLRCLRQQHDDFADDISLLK
CYP2C9, sequence (P11712 whole entry): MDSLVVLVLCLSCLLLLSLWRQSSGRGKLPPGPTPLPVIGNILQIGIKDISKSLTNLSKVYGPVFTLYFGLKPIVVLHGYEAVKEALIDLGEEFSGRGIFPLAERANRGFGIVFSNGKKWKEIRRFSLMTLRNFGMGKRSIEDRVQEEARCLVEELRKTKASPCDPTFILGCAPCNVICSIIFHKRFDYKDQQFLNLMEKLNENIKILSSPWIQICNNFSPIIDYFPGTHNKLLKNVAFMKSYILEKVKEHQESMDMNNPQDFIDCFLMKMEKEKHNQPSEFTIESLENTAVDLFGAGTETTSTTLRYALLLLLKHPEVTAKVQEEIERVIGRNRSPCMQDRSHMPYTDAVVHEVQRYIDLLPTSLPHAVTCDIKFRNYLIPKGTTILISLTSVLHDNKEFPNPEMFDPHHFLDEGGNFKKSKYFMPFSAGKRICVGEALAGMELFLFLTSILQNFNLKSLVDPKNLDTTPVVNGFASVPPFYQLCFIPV
CYP1A2, sequence (P05177 whole entry): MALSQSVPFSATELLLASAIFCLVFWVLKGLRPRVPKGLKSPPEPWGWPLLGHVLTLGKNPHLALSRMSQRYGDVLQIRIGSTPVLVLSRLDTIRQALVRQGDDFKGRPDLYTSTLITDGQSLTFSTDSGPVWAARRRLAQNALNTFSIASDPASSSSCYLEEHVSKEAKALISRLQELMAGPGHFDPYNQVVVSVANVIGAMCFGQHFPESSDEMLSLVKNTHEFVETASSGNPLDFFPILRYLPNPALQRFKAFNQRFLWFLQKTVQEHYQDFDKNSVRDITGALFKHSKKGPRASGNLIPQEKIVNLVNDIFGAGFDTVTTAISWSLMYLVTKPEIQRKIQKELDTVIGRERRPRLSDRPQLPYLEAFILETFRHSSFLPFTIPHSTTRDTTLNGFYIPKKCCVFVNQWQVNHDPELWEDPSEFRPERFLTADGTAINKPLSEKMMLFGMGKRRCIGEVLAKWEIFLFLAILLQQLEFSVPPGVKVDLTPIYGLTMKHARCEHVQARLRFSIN
CYP2C19, sequence (P33261 whole entry): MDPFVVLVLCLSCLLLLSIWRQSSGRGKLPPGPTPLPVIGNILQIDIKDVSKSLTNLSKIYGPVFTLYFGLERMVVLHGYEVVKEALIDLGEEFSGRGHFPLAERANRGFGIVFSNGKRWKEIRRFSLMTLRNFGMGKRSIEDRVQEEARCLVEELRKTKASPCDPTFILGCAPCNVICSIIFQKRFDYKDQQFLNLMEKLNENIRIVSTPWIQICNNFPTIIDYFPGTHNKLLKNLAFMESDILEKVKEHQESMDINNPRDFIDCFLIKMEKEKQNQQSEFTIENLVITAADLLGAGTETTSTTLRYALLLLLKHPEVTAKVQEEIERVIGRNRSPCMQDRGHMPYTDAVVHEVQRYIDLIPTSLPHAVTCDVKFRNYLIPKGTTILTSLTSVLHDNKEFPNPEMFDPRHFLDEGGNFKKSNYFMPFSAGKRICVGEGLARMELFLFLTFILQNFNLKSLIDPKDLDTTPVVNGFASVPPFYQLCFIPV
CYP2D6, sequence (P10635 whole entry): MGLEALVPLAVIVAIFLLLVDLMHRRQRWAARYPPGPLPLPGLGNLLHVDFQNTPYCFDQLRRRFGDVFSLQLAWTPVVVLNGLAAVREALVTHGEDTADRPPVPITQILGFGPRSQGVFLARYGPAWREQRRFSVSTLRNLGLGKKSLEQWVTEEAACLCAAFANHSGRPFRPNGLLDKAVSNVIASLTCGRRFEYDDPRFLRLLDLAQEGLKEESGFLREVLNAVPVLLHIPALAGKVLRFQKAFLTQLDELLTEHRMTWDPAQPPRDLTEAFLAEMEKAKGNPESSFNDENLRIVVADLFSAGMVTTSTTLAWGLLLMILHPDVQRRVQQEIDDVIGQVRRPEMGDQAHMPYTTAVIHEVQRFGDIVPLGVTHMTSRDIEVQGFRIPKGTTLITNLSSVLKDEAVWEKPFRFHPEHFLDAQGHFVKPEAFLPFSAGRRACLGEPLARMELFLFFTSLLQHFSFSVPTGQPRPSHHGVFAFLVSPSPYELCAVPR
T1 sequence (P08684 whole entry): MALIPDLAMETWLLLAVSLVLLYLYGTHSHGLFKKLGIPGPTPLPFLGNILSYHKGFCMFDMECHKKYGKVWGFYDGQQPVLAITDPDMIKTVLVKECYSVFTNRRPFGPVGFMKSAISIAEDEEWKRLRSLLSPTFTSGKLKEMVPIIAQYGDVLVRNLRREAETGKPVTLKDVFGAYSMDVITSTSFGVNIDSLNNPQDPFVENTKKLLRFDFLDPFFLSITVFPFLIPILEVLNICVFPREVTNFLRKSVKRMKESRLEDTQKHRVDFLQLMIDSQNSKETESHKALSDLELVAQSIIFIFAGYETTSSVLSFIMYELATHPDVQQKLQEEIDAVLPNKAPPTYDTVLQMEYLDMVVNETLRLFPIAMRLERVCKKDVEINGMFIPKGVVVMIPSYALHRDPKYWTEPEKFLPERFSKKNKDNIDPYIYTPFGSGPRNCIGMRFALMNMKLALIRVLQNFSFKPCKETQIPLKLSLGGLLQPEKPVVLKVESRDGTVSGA
human ether-a-go-go related gene (hERG) channel, sequence (Q12809 whole entry): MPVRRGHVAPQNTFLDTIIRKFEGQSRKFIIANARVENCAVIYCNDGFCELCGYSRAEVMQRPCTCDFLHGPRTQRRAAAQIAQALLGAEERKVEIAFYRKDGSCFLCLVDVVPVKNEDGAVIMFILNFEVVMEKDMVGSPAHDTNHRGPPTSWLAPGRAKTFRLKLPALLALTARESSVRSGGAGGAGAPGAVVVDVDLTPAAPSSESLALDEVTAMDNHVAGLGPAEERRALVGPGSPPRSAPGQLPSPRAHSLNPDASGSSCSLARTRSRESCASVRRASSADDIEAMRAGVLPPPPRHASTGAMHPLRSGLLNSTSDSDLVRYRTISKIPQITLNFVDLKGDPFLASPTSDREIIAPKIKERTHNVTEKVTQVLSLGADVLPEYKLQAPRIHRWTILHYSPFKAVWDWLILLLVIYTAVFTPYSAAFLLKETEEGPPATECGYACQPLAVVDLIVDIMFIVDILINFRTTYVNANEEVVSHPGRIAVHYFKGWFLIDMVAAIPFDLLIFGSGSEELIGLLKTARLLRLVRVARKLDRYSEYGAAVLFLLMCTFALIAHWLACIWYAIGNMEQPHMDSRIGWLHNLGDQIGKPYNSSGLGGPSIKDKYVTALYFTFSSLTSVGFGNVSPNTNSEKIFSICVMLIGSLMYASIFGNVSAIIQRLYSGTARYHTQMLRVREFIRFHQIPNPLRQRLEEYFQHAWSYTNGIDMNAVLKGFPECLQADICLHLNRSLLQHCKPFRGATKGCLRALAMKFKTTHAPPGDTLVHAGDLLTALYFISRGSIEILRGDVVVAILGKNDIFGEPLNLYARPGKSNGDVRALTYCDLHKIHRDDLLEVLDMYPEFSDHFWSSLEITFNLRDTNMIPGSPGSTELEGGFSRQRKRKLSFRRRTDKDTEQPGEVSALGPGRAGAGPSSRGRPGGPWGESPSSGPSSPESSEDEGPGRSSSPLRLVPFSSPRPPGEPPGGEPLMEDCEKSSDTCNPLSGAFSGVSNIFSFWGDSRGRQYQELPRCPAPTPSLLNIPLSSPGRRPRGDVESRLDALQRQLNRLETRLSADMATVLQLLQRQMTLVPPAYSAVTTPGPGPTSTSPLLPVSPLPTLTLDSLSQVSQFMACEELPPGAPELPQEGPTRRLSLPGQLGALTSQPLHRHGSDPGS

solubility at 4 h [1]: > 40 µM
Compound: COc1cnc(C(=O)Nc2cccc(C3(C4CCCCC4)CSC(N)=N3)c2)cn1 (centres unmarked) [Compound 2]

solubility at 4 h [1]: > 40 µM
Compound: NC1=NC(c2ccc(F)cc2)(c2cccc(NC(=O)c3ncc(Cl)cc3Cl)c2)CS1 (centres unmarked) [Compound 9]

solubility at 4 h [1]: > 40 µM | IC50 [2]: ≤ 1000 nM
Compound: C[C@@]1(c2cc(NC(=O)c3ccc(OCCF)cn3)ccc2F)C=CSC(N)=N1 [Compound 32]

IC50 [3]: > 20000 nM | IC50 [4]: > 20000 nM | IC50 [5]: > 20000 nM | IC50 [6]: > 20000 nM | IC50 [7]: > 20000 nM | IC50 [2, 11]: 96 nM
Compound: Cc1cc(C(=O)Nc2ccc(F)c([C@]3(C)C=CSC(N)=N3)c2)n(C)n1 [Compound 35]

IC50 [3]: > 20000 nM | IC50 [4]: > 20000 nM | IC50 [5]: > 20000 nM | IC50 [6]: > 20000 nM | IC50 [7]: > 20000 nM
Compound: CC(C)(C)S(=O)(=O)Nc1cnc(C(=O)Nc2ccc(F)c([C@]3(C)C=CSC(N)=N3)c2)cn1 [Compound 68]

solubility at 4 h [1]: > 40 µM | remaining amount of the test compound after the reaction [8]: 94% | IC50 [2, 11]: 36 nM
Compound: C[C@@]1(c2cc(NC(=O)c3cnc(-n4cncn4)cn3)ccc2F)C=CSC(N)=N1 [Compound 70]

IC50 [2]: ≤ 1000 nM
Compound: C=C1C[C@@](C)(c2cc(NC(=O)c3ccc(C#N)cn3)cnc2Cl)N=C(N)S1 [Compound 95]

IC50 [2]: ≤ 1000 nM
Compound: C/C(CN(C)C)=C1\C[C@@](C)(c2cc(NC(=O)c3ccc(C#N)cn3)ccc2F)N=C(N)S1 [Compound 100]

IC50 [2, 11]: 22 nM
Compound: C=C1C[C@@](C)(c2cc(NC(=O)c3ncc(C#N)cc3F)cnc2Cl)N=C(N)S1 [Compound 101]

IC50 [2]: ≤ 1000 nM
Compound: C=C1C[C@@](C)(c2cc(NC(=O)c3ccc(C#N)cn3)cnc2C)N=C(N)S1 [Compound 103]

IC50 [3]: > 20000 nM | IC50 [4]: > 20000 nM | IC50 [5]: > 20000 nM | IC50 [6]: > 20000 nM | IC50 [7]: > 20000 nM | IC50 [2, 11]: 63 nM
Compound: C=C1C[C@@](C)(c2cncc(NC(=O)c3cnc(OC)cn3)c2)N=C(N)S1 [Compound 104]

IC50 [2]: ≤ 1000 nM
Compound: C=C1C[C@@](C)(c2cncc(NC(=O)c3ccc(C#N)cn3)c2)N=C(N)S1 [Compound 105]

IC50 [3]: > 20000 nM | IC50 [4]: > 20000 nM | IC50 [5]: > 20000 nM | IC50 [6]: > 20000 nM | IC50 [7]: > 20000 nM | IC50 [2, 11]: 102 nM
Compound: C=C1C[C@@](C)(c2cncc(NC(=O)c3ncc(C(F)(F)F)cc3Cl)c2)N=C(N)S1 [Compound 106]

IC50 difference (with/without preincubation) [10]: < 3000 nM | IC50 [2]: ≤ 1000 nM
Compound: CC1=C[C@@](C)(c2cncc(NC(=O)c3ccc(C#N)cn3)c2)N=C(N)S1 [Compound 108]

remaining amount of the test compound after the reaction [8]: 98%
Compound: C[C@@]1(c2cccc(-c3ccc(F)nc3F)c2)CCSC(N)=N1 [Compound 213]

Second part, the compound before the results:

Compound: CC1=CSC(N)=N[C@]1(C)c1cc(NC(=O)c2cnc(C)cn2)ccc1F [Compound 23]
solubility at 4 h [1]: > 40 µM | IC50 [2, 11]: 5280 nM

Compound: C[C@@]1(c2cc(NC(=O)c3cnc(-c4ncco4)cn3)ccc2F)C=CSC(N)=N1 [Compound 38]
remaining amount of the test compound after the reaction [8]: 95% | IC50 [2, 11]: 304 nM

Compound: Cn1ccnc1COc1cnc(C(=O)Nc2ccc(F)c([C@]3(C)C=CSC(N)=N3)c2)cn1 [Compound 60]
solubility at 4 h [1]: > 40 µM | IC50 [2, 11]: 243 nM

Compound: C[C@@]1(c2cc(NC(=O)c3cc4n(n3)CCN4)ccc2F)C=CSC(N)=N1 [Compound 63]
IC50 [3]: > 20000 nM | IC50 [4]: > 20000 nM | IC50 [5]: > 20000 nM | IC50 [6]: > 20000 nM | IC50 [7]: > 20000 nM | IC50 [2, 11]: 435 nM

Compound: CNC(=O)c1ccc(-c2ccc(F)c([C@]3(C)C=CSC(N)=N3)c2)cn1 [Compound 92]
% inhibition of tail peak current (IKr) [9]: 7.9%

Compound: C/C(CN1CCOCC1)=C1\C[C@@](C)(c2cc(NC(=O)c3ccc(C#N)cn3)ccc2F)N=C(N)S1 [Compound 96]
IC50 [2]: ≤ 1000 nM

Compound: C/C(CN1CCCC1)=C1\C[C@@](C)(c2cc(NC(=O)c3ccc(C#N)cn3)ccc2F)N=C(N)S1 [Compound 98]
IC50 [2]: ≤ 1000 nM

Compound: C=C1C[C@@](C)(c2cc(NC(=O)c3cnc(OC)cn3)cnc2Cl)N=C(N)S1 [Compound 99]
IC50 difference (with/without preincubation) [10]: < 3000 nM | IC50 [2, 11]: 14 nM

Compound: C=C1C[C@@](C)(c2cc(NC(=O)c3cnc(OC)cn3)cnc2C)N=C(N)S1 [Compound 102]
% inhibition of tail peak current (IKr) [9]: 2.3% | IC50 [2, 11]: 36 nM

Compound: C=C1C[C@@](C)(c2cncc(NC(=O)c3ccc(C(F)(F)F)cn3)c2)N=C(N)S1 [Compound 107]
IC50 [2]: ≤ 1000 nM

Compound: C[C@@]1(c2cccc(-c3cncc(C#N)c3)c2)CCSC(N)=N1 [Compound 212]
remaining amount of the test compound after the reaction [8]: 95%
